From ChEMBL document CHEMBL3758109, “A novel triazole derivative of betulinic acid induces extrinsic and intrinsic apoptosis in human leukemia HL-60 cells” (Eur J Med Chem, 2016)

Tests used:
Assay type in all cases: functional
[1] = Cytotoxicity against human HL60 cells assessed as cell growth inhibition at 10 uM after 48 hrs by MTT assay; settings: HL-60, 48 h, read-out: GI
A549 = experiment: Cytotoxicity against human A549 cells assessed as cell growth inhibition at 10 uM after 48 hrs by MTT assay; settings: A549, 48 h, read-out: GI
[2] = Cytotoxicity against human PC3 cells assessed as cell growth inhibition at 10 uM after 48 hrs by MTT assay; settings: PC-3, 48 h, read-out: GI
[3] = Cytotoxicity against human MIAPaCa2 cells assessed as cell growth inhibition at 10 uM after 48 hrs by MTT assay; settings: MIA PaCa-2, 48 h, read-out: GI

Compound	inhibition of growth at 10 µM [1] [%]	inhibition of growth at 10 µM (A549) [%]	inhibition of growth at 10 µM [2] [%]	inhibition of growth at 10 µM [3] [%]
C=C(C)[C@@H]1CC[C@]2(C(=O)OCc3cn(-c4ccccc4C#N)nn3)CC[C@]3(C)[C@H](CC[C@@H]4[C@@]5(C)CC[C@H](OCc6cn(-c7ccccc7C#N)nn6)C(C)(C)[C@@H]5CC[C@]43C)[C@@H]12	12	0	15	23
C=C(C)[C@@H]1CC[C@]2(C(=O)OCc3cn(-c4cccc5c(O)cccc45)nn3)CC[C@]3(C)[C@H](CC[C@@H]4[C@@]5(C)CC[C@H](OCc6cn(-c7cccc8c(O)cccc78)nn6)C(C)(C)[C@@H]5CC[C@]43C)[C@@H]12	23	18	18	19
C=C(C)[C@@H]1CC[C@]2(C(=O)OCc3cn(-c4ccc(-c5ccccc5)cc4)nn3)CC[C@]3(C)[C@H](CC[C@@H]4[C@@]5(C)CC[C@H](O)C(C)(C)[C@@H]5CC[C@]43C)[C@@H]12	13	5	10	10
C=C(C)[C@@H]1CC[C@]2(C(=O)OCc3cn(-c4ccc(C)cc4)nn3)CC[C@]3(C)[C@H](CC[C@@H]4[C@@]5(C)CC[C@H](O)C(C)(C)[C@@H]5CC[C@]43C)[C@@H]12	56	52	67	34
C=C(C)[C@@H]1CC[C@]2(C(=O)OCc3cn(-c4ccc(NC(=O)c5ccccc5)cc4)nn3)CC[C@]3(C)[C@H](CC[C@@H]4[C@@]5(C)CC[C@H](O)C(C)(C)[C@@H]5CC[C@]43C)[C@@H]12	0	2	21	0
C=C(C)[C@@H]1CC[C@]2(C(=O)OCc3cn(-c4ccc5ccccc5c4)nn3)CC[C@]3(C)[C@H](CC[C@@H]4[C@@]5(C)CC[C@H](O)C(C)(C)[C@@H]5CC[C@]43C)[C@@H]12	18	1	7	6
C=C(C)[C@@H]1CC[C@]2(C(=O)OCc3cn(-c4cc(C)ccc4C)nn3)CC[C@]3(C)[C@H](CC[C@@H]4[C@@]5(C)CC[C@H](O)C(C)(C)[C@@H]5CC[C@]43C)[C@@H]12	51	41	44	38
C=C(C)[C@@H]1CC[C@]2(C(=O)OCc3cn(-c4ccc(C(C)(C)C)cc4)nn3)CC[C@]3(C)[C@H](CC[C@@H]4[C@@]5(C)CC[C@H](O)C(C)(C)[C@@H]5CC[C@]43C)[C@@H]12	11	9	9	9
C#CCOC(=O)[C@]12CC[C@@H](C(=C)C)[C@@H]1[C@H]1CC[C@@H]3[C@@]4(C)CC[C@H](O)C(C)(C)[C@@H]4CC[C@@]3(C)[C@]1(C)CC2	50	41	46	20
C=C(C)[C@@H]1CC[C@]2(C(=O)OCc3cn(-c4ccc(F)cc4)nn3)CC[C@]3(C)[C@H](CC[C@@H]4[C@@]5(C)CC[C@H](OCc6cn(-c7ccc(F)cc7)nn6)C(C)(C)[C@@H]5CC[C@]43C)[C@@H]12	13	11	8	7
C=C(C)[C@@H]1CC[C@]2(C(=O)OCc3cn(-c4cccc(OCc5ccc(F)cc5)c4)nn3)CC[C@]3(C)[C@H](CC[C@@H]4[C@@]5(C)CC[C@H](O)C(C)(C)[C@@H]5CC[C@]43C)[C@@H]12	32	6	4	9
